Reference: patent publication US20210332024A1, “MODULATORS OF PIN1 ACTIVITY AND USES THEREOF” (Yeda Research and Development Co. Ltd., priority 2019, published 2021)

Tests used:
[1] = biological target: T1, Pin1 in PATU-8988T cells (Homo sapiens, UniProt Q13526); assay: Live cell competition assay with Pin1-3-DTB pull-down, PATU-8988T cells; assay type: cell-based; conditions: 0.25 to 1 μM for 5 hours (Pin1-3-AcA 1 μM)
T1 construct: endogenous in cells; host or cells: PATU-8988T
Procedure: (§1) The indicated cells were treated with increasing concentrations of either DMSO, Pin1-3, or Pin1-3-AcA for 5 hours. Cells were harvested by scraping and washed twice with PBS before lysis with 50 mM HEPES (pH 7.4), 1 mM EDTA, 10% glycerol, 1 mM TCEP, 150 mM NaCl, 1 mM EDTA, 0.5% NP-40, and protease inhibitor tablet (Roche cat. #4693159001). After clarifying (14,000 rpm for 15 minutes), samples were treated with the indicated concentrations of Pin1-3-DTB at 4° C. for 1 hour. Lysates were then incubated with streptavidin agarose resin (Thermo Scientific, cat. #20349) for 1.5 hour at 4° C. Beads were washed four times with 500 μl of washing buffer (50 mM HEPES (pH 7.5), 10 mM NaCl, 1 mM EDTA, 10% glycerol), then pelleted by centrifugation and dried. The beads were boiled for 5 minutes at 95° C. in 2×LDS+10% β-mercaptoethanol. Proteins of interest were then assessed via Western blotting using the bolt system (Life Technologies).
The indicated cells were plated in 10 cm plates with 2.5 million cells per plate in 6 ml of medium. The day after plating, cells were treated with the indicated concentrations of candidate inhibitor for the indicated time points. The cells were then washed two times with cold phosphate buffer saline (1 ml per 10 cm plate) and collected by scraping with a cell scraper. Cells were lysed in 50 mM HEPES (pH 7.4), 1 mM EDTA, 10% glycerol, 1 mM TCEP, 150 mM NaCl, 1 mM EDTA, 0.5% NP-40, and protease inhibitor tablet (Roche)-using 210 μl of cell lysis buffer per 10 cm plate of cells. After clarifying (14,000 rpm for 15 minutes), 9 μl of each lysate sample was combined with […] of 4×LDS+10% β-mercaptoethanol (in a ratio of 3:1), boiled for 5 minutes, and set aside for the input loading control. Then, 200 μl of each lysate sample was incubated with 1 μM of Pin1-3-DTB for 1 hour at 4° C. and processed as described hereinabove for the lysate pull-down assays.
In order to assess cell permeability of Pin1-3 as well as its ability to engage cellular Pin1, PATU-8988T cells were treated with Pin1-3 (0.25 to 1 μM) for 5 hours. After cell lysis, the lysates were incubated with Pin1-3-DTB (1 μM, 1 hour at 4° C.) and probe-labeled targets were pulled down with streptavidin beads.

[2] = biological target: T2, Pin1 in IMR32 cells (Homo sapiens, UniProt Q13526); assay: Live cell competition assay with Pin1-3-DTB pull-down, IMR32 cells; assay type: cell-based; conditions: IMR32 cells, 0.25, 0.5 or 1 μM Pin1-3 or 1 μM Pin1-3-AcA
T2 construct: endogenous in cells; host or cells: IMR32
Procedure: as §1
The indicated cells were plated in 10 cm plates with 2.5 million cells per plate in 6 ml of medium. The day after plating, cells were treated with the indicated concentrations of candidate inhibitor for the indicated time points. The cells were then washed two times with cold phosphate buffer saline (1 ml per 10 cm plate) and collected by scraping with a cell scraper. […]

[3] = system: wild-type 8988T pancreatic cancer cells; assay: Organoid growth in Matrigel, wild-type PATU-8988T; assay type: cell-based; conditions: 1 μM, 9 days
Procedure: (§2) As three dimensional (3D) organoid models can reflect in vivo results better than monolayer cell culture [Baker et al., Trends Cancer Res 2016, 2:176-190], the anti-proliferative activity of Pin1-3 in PATU-8988T was further evaluated in wild-type or Pin1-knockout cells grown as organoids in Matrigel™ droplets. Cells were treated for 9 days with Pin1-3 (or Pin1-3-AcA or vehicle as a control), replenishing the compound in media every 3 days.

[4] = biological target: GST-Pin1 (Homo sapiens, UniProt Q13526); assay: Fluorescence polarization (FP) competition assay; assay type: binding; conditions: FP assay, competition with fluorescein-labeled peptide, 250 nM GST-Pin1; read-out: Ki (apparent)
Procedure: Binding affinity to Pin1 was determined using a fluorescence polarization assay to assess competition with an N-terminal fluorescein-labeled peptide (Bth-D-phosThr-Pip-Nal), which was obtained from JPT Peptide Technologies and Proteintech Group. The indicated concentrations of candidate compound were pre-incubated for 12 hours at 4° C. with a solution containing 250 nM glutathione S-transferase (GST)-Pin1, 5 nM of fluorescein-labeled peptide probe, 10 μg/ml bovine serum albumin, 0.01% Tween-20 and 1 mM DTT (dithiothreitol) in a buffer of 10 mM HEPES, 10 mM NaCl and 1% glycerol (pH 7.4). Measurements of FP were performed in black 384-well plates (Corning) using an EnVision™ reader. Apparent Ki values (under the tested conditions) obtained from the FP assay results were derived from the Kenakin Ki equation:
Kenakin Ki=(Lb)(EC50)(Kd)/(Lo)(Ro)+Lb(Ro−Lo+Lb−Kd)
Sittampalam G. S. et al., Eli Lilly & Company and the National Center for Advancing Translational Sciences, 2004].
Covalent labeling of Pin1 was confirmed to translate into enzyme inhibition via a fluorescence polarization (FP) competition assay using a FITC-labeled substrate mimetic peptide inhibitor, as well as a chymotrypsin-coupled PPIase assay, using procedures described in Wei et al. [Nat Med 2015, 21:457-466].
The fluorescent polarization assay was performed in a dose-dependent and time-dependent manner, in order to further characterize the kinetic parameters of Pin1-3 binding to Pin1.

[5] = system: Pin1-knockout pancreatic cancer cells; assay: Organoid growth in Matrigel, Pin1-knockout PATU-8988T; assay type: cell-based; conditions: 1 μM, 9 days
Procedure: as §2

[6] = biological target: T3, Pin1 in PAT8988T cell lysates (Homo sapiens, UniProt Q13526); assay: Lysate pull-down assay with Pin1-3-DTB; assay type: binding; conditions: 1 μM probe, 1 hour incubation in cell lysates
T3 construct: endogenous in cells; host or cells: PATU-8988T
Procedure: as §1

GST-Pin1, sequence (Q13526 whole entry): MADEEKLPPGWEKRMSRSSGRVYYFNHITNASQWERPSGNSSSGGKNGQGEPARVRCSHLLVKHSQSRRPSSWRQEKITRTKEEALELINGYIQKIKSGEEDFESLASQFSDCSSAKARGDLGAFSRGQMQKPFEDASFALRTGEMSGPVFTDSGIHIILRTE
T2 sequence (Q13526 whole entry): as above
T3 sequence (Q13526 whole entry): as above
T1 sequence (Q13526 whole entry): as above

Competition with Pin1-3-DTB for Pin1 binding (pull-down) [1]	Engagement of Pin1 (competition with Pin1-3-DTB) [2]	Ki [4] [nM]	Pull-down of Pin1 by the probe [6]	Structure (SMILES)	Organoid growth [3]	Organoid growth [5]
no competition	does not	> 100000	–	CC(=O)N(CC(C)(C)C)C1CCS(=O)(=O)C1 (stereo not shown) [Pin1-3-AcA, reference compound]	no effect	no effect
–	–	38	complete pull-down	CC1NC(=O)NC1CCCCCC(=O)NCCOCCOCCOCCC(=O)NCC(C)(C)CN(C(=O)CCl)C1CCS(=O)(=O)C1 (stereo not shown) [Pin1-3-DTB]	–	–
